In ChEMBL document CHEMBL4431304, “Myritonines A-C, Alkaloids from Myrioneuron tonkinensis Based on a Novel Hexacyclic Skeleton” (J Nat Prod, 2016):
The source made the active and inactive calls. The calls are words filed in the database; no cut-off is given here.

Experiments:
MCF7 = assay: Cytotoxicity against human MCF7 cells assessed as reduction in cell viability after 48 hrs by MTT assay; format: functional, cell-based; conditions: MCF7, 48 h
[1] = Therapeutic index, ratio of CC50 for human Huh7.5 cells to EC50 for Hepatitis C virus; format: toxicity; conditions: read-out: Ratio CC50/EC50
SMMC-7721 = assay: Cytotoxicity against human SMMC7721 cells assessed as reduction in cell viability after 48 hrs by MTT assay; format: functional, cell-based; conditions: SMMC-7721, 48 h
A549 = assay: Cytotoxicity against human A549 cells assessed as reduction in cell viability after 48 hrs by MTT assay; format: functional, cell-based; conditions: A549, 48 h
HL-60 = assay: Cytotoxicity against human HL60 cells assessed as reduction in cell viability after 48 hrs by MTT assay; format: functional, cell-based; conditions: HL-60, 48 h
SW480 = assay: Cytotoxicity against human SW480 cells assessed as reduction in cell viability after 48 hrs by MTT assay; format: functional, cell-based; conditions: SW480, 48 h
Hepatitis C virus = assay: Antiviral activity against HCV infected in human Huh7.5 cells assessed as decrease in viral RNA level after 72 hrs by RT-PCR method; format: functional, organism-based; conditions: Hepacivirus hominis

| SMILES | IC50 (MCF7) [µM] | selectivity ratio [1] | IC50 (SMMC-7721) [µM] | IC50 (A549) [µM] | IC50 (HL-60) [µM] | IC50 (SW480) [µM] | Activity (Hepatitis C virus) |
| --- | --- | --- | --- | --- | --- | --- | --- |
| C1C[C@H]2CC[C@H]3N4CCCC[C@H]4[C@@H]4CCCN5C[C@@H](C1)[C@H]2N3[C@@H]45 | > 10 | > 12 | > 10 | > 10 | > 10 | > 10 | Active |
| O=C1[C@H]2CCC[C@H]3CC[C@H]4N5CCCC[C@H]5[C@@H]5CCCN1[C@H]5N4[C@@H]32 | > 10 | > 11 | > 10 | > 10 | > 10 | > 10 | Active |
| N#C[C@@H]1N2CCC[C@H]3[C@@H]4CCCCN4[C@@H]4CC[C@H]5CCC[C@]1(O)[C@@H]5N4[C@@H]32 | > 10 | – | > 10 | > 10 | > 10 | > 10 | – |
